From the supplement of paper PMC11208160

experiment: recombinant UMI read abundance after kanamycin selection (control-corrected) (log10(CPM+1)); higher = more efficient recombination; extreme values may be limits of the assay; sequences stand for … in AGTGCAGAGAAAATCGGCCAGTTTTCTCTGCCTGCAGTCCGCATGCCGTGGGACCCCTTGGGTTCTAACCTGTTGCCTAGATTTATGCAGCGGACTGCCTTTCTCCCAAAGTGATAAACCGG…AGGTTGGTTTCACT; site = the 11-nt donor
Procedure, shortened: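 Sequencing read counts were converted to CPM, averaged over two replicates and scaled by control-derived factors. Results are given as log10(CPM+1). The reads covered the donor–target junction of recombinant UMIs from a pooled Escherichia coli screen of donor and donor-binding-loop pairs for the IS621 bridge recombinase.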
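Note: IS621 bridge recombinase in Escherichia coli cells against a fixed T5 target plasmid.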

First: GCTCGTCCATGGACCGGTTTTCCCGGTAATCCGTATTTGGG (site GCTCGTCCTCC)
Second: GCTCTATCATGGACCGGTTTTCCCGGTAATCCGTATTTGCT (site GCTCTATCTAG)
The “recombinant UMI read abundance (log10)” value of the first is lower: 0.0164 for the first, 2.04 for the second.

Going from “GCTGCGCCATGGACCGGTTTTCCCGGTAATCCGTATTTGGA (site GCTGCGCCTTC)” to “GCTGGGACATGGACCGGTTTTCCCGGTAATCCGTATTTGTG (site GCTGGGACTCA)”, the “recombinant UMI read abundance (log10)” value rises from 0.0238 to 0.944.

Going from “GCTGGTACATGGACCGGTTTTCCCGGTAATCCGTATTTGCG (site GCTGGTACTCG)” to “GCTGTGTCATGGACCGGTTTTCCCGGTAATCCGTATTTGCG (site GCTGTGTCTCG)”, the “recombinant UMI read abundance (log10)” value rises from 1.68 to 2.07.

First: GCTTAAGCATGGACCGGTTTTCCCGGTAATCCGTATTTGCC (site GCTTAAGCTGG)
Second: GCTTACACATGGACCGGTTTTCCCGGTAATCCGTATTTGCG (site GCTTACACTCG)
The “recombinant UMI read abundance (log10)” value of the first is lower: 0.666 for the first, 1.72 for the second.

“GCTTACCCATGGACCGGTTTTCCCGGTAATCCGTATTTGAT (site GCTTACCCTAT)” and “GCTTACCCATGGACCGGTTTTCCCGGTAATCCGTATTTGAT (site GCTTCCCCTAT)” are within 0.2 log units of each other in “recombinant UMI read abundance (log10)” value: 0.0241 for the first, 0 for the second.

“GCTTACCCATGGACCGGTTTTCCCGGTAATCCGTATTTGAT (site GCTTGCCCTAT)” and “GCTTACCCATGGACCGGTTTTCCCGGTAATCCGTATTTGAT (site GCTTTCCCTAT)” are within 0.2 log units of each other in “recombinant UMI read abundance (log10)” value: 0.0186 for the first, 0 for the second.

First: GCTTATCCATGGACCGGTTTTCCCGGTAATCCGTATTTGCT (site GATTATCCTAG)
Second: GCTTATCCATGGACCGGTTTTCCCGGTAATCCGTATTTGCT (site GCTTATCCTAG)
The “recombinant UMI read abundance (log10)” value of the first is lower: 0 for the first, 1.03 for the second.

“GCTTATCCATGGACCGGTTTTCCCGGTAATCCGTATTTGCT (site GGTTATCCTAG)” and “GCTTATCCATGGACCGGTTTTCCCGGTAATCCGTATTTGCT (site GTTTATCCTAG)” are the same in “recombinant UMI read abundance (log10)” value: 0 for the first, 0 for the second.

Going from “GCTTCCGCATGGACCGGTTTTCCCGGTAATCCGTATTTGTT (site GCTTCCGCTAA)” to “GCTTCTACATGGACCGGTTTTCCCGGTAATCCGTATTTGTA (site GCTTCTACTTA)”, the “recombinant UMI read abundance (log10)” value falls from 1.48 to 0.541.

“GCTTGACCATGGACCGGTTTTCCCGGTAATCCGTATTTGAT (site GCTTGACCTAT)” and “GCTTGACCATGGACCGGTTTTCCCGGTAATCCGTATTTGAT (site GCTTGCCCTAT)” are within 0.2 log units of each other in “recombinant UMI read abundance (log10)” value: 0.00317 for the first, 0.00707 for the second.

“GCTTGACCATGGACCGGTTTTCCCGGTAATCCGTATTTGAT (site GCTTGGCCTAT)” and “GCTTGACCATGGACCGGTTTTCCCGGTAATCCGTATTTGAT (site GCTTGTCCTAT)” are within 0.2 log units of each other in “recombinant UMI read abundance (log10)” value: 0.117 for the first, 0.00374 for the second.

“GCTTGCCCATGGACCGGTTTTCCCGGTAATCCGTATTTGAA (site GCTTGCCCTAT)” and “GCTTGCCCATGGACCGGTTTTCCCGGTAATCCGTATTTGAA (site GCTTGCCCTCT)” are within 0.2 log units of each other in “recombinant UMI read abundance (log10)” value: 0 for the first, 0.00774 for the second.

“GCTTGCCCATGGACCGGTTTTCCCGGTAATCCGTATTTGAA (site GCTTGCCCTGT)” and “GCTTGCCCATGGACCGGTTTTCCCGGTAATCCGTATTTGAA (site GCTTGCCCTTT)” are within 0.2 log units of each other in “recombinant UMI read abundance (log10)” value: 0 for the first, 0.0264 for the second.

“GCTTGCCCATGGACCGGTTTTCCCGGTAATCCGTATTTGAC (site GCTTGCCCTAT)” and “GCTTGCCCATGGACCGGTTTTCCCGGTAATCCGTATTTGAC (site GCTTGCCCTCT)” are within 0.2 log units of each other in “recombinant UMI read abundance (log10)” value: 0 for the first, 0.0563 for the second.

For “GCTTGCCCATGGACCGGTTTTCCCGGTAATCCGTATTTGAC (site GCTTGCCCTGT)”, the “recombinant UMI read abundance (log10)” value was 0.
